Common to all, as to assay type: biochemical
One assay concerns the target T1, KDM3A (JMJD1A) (Homo sapiens, UniProt Q9Y4C1).
T1 construct: 2-end; purchased BPS Bioscience, US; host or cells: Bac (baculovirus system)
T1 sequence (Q9Y4C1 2-1321 limits assumed): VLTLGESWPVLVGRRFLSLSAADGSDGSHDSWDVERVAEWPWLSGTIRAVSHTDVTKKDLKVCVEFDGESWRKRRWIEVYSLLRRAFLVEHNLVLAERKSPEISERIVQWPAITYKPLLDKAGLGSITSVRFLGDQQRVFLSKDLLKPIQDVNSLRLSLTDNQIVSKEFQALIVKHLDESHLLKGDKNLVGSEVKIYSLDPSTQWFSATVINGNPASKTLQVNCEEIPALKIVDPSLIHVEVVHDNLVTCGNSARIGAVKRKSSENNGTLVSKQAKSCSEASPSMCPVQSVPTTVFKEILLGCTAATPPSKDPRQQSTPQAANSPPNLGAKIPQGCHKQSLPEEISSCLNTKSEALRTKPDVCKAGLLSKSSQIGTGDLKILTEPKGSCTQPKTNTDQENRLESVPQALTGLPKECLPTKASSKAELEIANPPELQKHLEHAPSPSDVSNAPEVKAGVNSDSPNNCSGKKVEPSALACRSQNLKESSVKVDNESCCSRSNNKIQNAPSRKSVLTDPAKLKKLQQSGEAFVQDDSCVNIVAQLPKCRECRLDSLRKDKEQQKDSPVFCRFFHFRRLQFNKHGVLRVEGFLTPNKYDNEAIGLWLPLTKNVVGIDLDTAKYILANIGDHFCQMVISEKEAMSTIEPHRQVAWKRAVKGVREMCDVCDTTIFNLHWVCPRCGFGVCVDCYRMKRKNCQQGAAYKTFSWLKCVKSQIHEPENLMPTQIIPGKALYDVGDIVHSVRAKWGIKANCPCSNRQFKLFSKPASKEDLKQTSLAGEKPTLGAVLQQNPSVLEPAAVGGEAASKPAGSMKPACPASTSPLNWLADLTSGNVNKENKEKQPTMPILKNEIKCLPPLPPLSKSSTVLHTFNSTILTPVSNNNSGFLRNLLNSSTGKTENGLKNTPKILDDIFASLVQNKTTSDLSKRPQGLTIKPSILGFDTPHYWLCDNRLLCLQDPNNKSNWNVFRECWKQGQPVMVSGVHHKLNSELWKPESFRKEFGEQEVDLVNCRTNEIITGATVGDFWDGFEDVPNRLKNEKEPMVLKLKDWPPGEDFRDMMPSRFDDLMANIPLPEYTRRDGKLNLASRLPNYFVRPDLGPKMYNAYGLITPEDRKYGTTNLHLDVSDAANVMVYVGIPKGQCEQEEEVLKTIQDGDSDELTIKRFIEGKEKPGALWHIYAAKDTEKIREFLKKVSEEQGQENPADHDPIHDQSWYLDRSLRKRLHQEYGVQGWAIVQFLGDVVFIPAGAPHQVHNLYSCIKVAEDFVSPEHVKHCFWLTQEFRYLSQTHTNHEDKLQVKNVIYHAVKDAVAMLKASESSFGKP
Put plainly: Histone lysine demethylase AlphaLISA assay, KDM3A. To be noted: read-out: KDM3 A HDME Inhibition IC50. Put shortly: (§1)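 Each enzyme was pre-incubated 10 min in buffer, then 10 min with compound in 3% DMSO solution. The reaction started with biotinylated histone H3 peptide substrate plus 25 μM L-ascorbate and 10 μM α-KG at room temperature. Detection used AlphaLISA acceptor beads, then streptavidin donor beads, in the dark.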

For a further assay, the target named is T2, KDM4B (JMJD2B) (Homo sapiens, UniProt O94953).
T2 construct: 2-500; purchased BPS; host or cells: Bac (baculovirus system)
T2 sequence (O94953 2-500): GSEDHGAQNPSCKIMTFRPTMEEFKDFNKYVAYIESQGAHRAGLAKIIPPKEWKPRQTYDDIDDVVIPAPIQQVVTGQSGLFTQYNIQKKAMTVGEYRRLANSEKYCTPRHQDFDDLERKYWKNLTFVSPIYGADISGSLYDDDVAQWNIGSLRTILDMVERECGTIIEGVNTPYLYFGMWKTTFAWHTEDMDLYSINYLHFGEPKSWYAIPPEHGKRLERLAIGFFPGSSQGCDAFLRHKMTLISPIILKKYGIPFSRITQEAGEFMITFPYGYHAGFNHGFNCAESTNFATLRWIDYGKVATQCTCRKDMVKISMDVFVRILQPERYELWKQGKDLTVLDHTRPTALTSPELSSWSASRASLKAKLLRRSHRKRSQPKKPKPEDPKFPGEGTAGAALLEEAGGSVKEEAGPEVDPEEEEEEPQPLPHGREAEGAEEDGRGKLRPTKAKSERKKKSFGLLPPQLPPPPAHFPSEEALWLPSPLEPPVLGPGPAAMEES
Put plainly: Histone lysine demethylase AlphaLISA assay, KDM4B. To be noted: read-out: KDM4B HDME Inhibition IC50. Put shortly: as §1

The target of another assay is T3, KDM4A (JMJD2A) (Homo sapiens, UniProt O75164).
T3 construct: 1-350; purchased BPS Bioscience, US; host or cells: E. coli
T3 sequence (O75164 1-350): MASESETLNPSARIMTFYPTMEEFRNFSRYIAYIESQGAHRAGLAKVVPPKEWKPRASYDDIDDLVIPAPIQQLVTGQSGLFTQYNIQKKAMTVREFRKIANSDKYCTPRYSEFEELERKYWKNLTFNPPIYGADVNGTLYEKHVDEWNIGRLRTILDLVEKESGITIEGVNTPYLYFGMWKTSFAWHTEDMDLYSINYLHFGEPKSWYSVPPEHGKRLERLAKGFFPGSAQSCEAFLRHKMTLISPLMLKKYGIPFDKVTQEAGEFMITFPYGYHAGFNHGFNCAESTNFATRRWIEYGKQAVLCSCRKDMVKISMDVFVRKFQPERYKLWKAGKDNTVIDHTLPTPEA
Put plainly: Histone lysine demethylase AlphaLISA assay, KDM4A. To be noted: read-out: KDM4A HDME Inhibition IC50. Put shortly: as §1
Background: In Alpha technology, singlet oxygen from a donor bead excites a nearby acceptor bead.

For orientation: IC50 means the concentration needed to halve the response being measured. Take `CCN(CCN(C)C)C(=O)CNCc1cc(CNC(=O)C(F)(F)F)ccn1` [Compound 25, N-[(2-{[({[2-(dimethylamino)ethyl]-(ethyl)carbamoyl}-methyl)amino]methyl}-pyrtdin-4-yl)methyl]-2,2,2-trifluoroacetamide]: the IC50 at KDM3A (JMJD1A), on KDM4B (JMJD2B) and on KDM4A (JMJD2A) was more than 2.5 µM each time.
As to `CN(C)C/C=C/CNCc1cc(/C=N/C2CC2)ccn1` [Compound 43, N-{[2-({[(2E)-4-(dimethylamino)but-2-en-1-yl]amino}-methyl)pyridin-4-yl]methylidene}-cyclopropanamine], the IC50 was more than 2.5 µM on KDM3A (JMJD1A), less than 0.25 µM on KDM4B (JMJD2B) and 0.25 to 2.5 µM at KDM4A (JMJD2A).
On the same counts, the results for `CCN(CCC#N)C(=O)CNCc1cc(/C=N/C2CC2)ccn1` [Compound 50, N-(2-cyanoethyl)-2-[({4-[N-cyclopropyl-carboximidoyl]-pyridin-2-yl}methyl)amino]-N-ethylacetamide] are more than 2.5 µM, less than 0.25 µM and less than 0.25 µM.
On the same counts, the results for `C(=N\C1CC1)/c1ccnc(CNCCCCN2CCC2)c1` [Compound 44, N-{[2-({[4-(azetidin-1-yl)butyl]amino}methyl)-pyridin-4-yl]methylidene}-cyclopropanamine] are more than 2.5 µM, more than 2.5 µM and more than 2.5 µM.
On to `CN(C)CCCCCNCc1cc(C=O)ccn1` [Compound 114, 2-({[5-(dimethylamino)-pentyl]amino}methyl)-pyridine-4-carbaldehyde], for which the IC50 was more than 2.5 µM at KDM3A (JMJD1A), 0.25 to 2.5 µM on KDM4B (JMJD2B) and more than 2.5 µM at KDM4A (JMJD2A).
For `CCN(CC)C(=O)CNCc1cc(C=O)ccn1` [Compound 105, N,N-diethyl-2-{[(4-formylpyridin-2-yl)methyl]amino}-acetamide], the IC50 at KDM3A (JMJD1A) is more than 2.5 µM; on KDM4B (JMJD2B), less than 0.25 µM; on KDM4A (JMJD2A), more than 2.5 µM.
For `CCN(CC)CCCCNCc1cc(/C=N/CC(F)(F)C(F)(F)F)ccn1` [Compound 62, {[2-({[4-(diethylamino)-butyl]amino}methyl)pyridin-4-yl]methylidene} (2,2,3,3,3-pentafluoropropyl)-amine], the values for the IC50 on KDM3A (JMJD1A), on KDM4B (JMJD2B) and at KDM4A (JMJD2A) were more than 2.5 µM, 0.25 to 2.5 µM and more than 2.5 µM, respectively.
Consider `N#CCNCc1ccnc(CNCCCCN(Cc2ccccc2)C2CC2)c1` [Compound 23, 2-[({2-[({4-[benzyl(cyclopropyl)-amino]butyl}amino)-methyl]pyridin-4-yl}methyl)amino]-acetonitrile], for which the IC50 at KDM3A (JMJD1A), at KDM4B (JMJD2B) and at KDM4A (JMJD2A) was more than 2.5 µM in each case.
In the case of `CCN(CC)CCCCNCc1cc(C=O)ccn1` [Compound 107, 2-({[4-(diethylamino)-butyl]amino}-methyl)pyridine-4-carbaldehyde], the IC50 is more than 2.5 µM on KDM3A (JMJD1A), less than 0.25 µM on KDM4B (JMJD2B) and more than 2.5 µM on KDM4A (JMJD2A).
`CC1CCCCN1CCCNCc1cc(CNC2CC2)ccn1` (stereo not drawn) [Compound 11, N-{[2-({[3-(2-methylpiperidin-1-yl)propyl]amino}methyl)-pyridin-4-yl]methyl}-cyclopropanamine]: the IC50 on KDM3A (JMJD1A), on KDM4B (JMJD2B) and at KDM4A (JMJD2A) was more than 2.5 µM throughout.
`CCN(CCN(C)C)C(=O)CNCc1cc(CN)ccn1` [Compound 4, 2-({[4-(aminomethyl)pyridin-2-yl]methyl}amino)-N-[2-(dimethylamino)ethyl]-N-ethylacetamide]: the IC50 is more than 2.5 µM on KDM3A (JMJD1A), less than 0.25 µM on KDM4B (JMJD2B) and 0.25 to 2.5 µM on KDM4A (JMJD2A).
For `CN(C)CCCCNCc1cc(/C=N\C2CC2)ccn1` [Compound 45, N-{[2-({[4-(dimethylamino)butyl]-amino}methyl)-pyridin-4-yl]methylidene}-cyclopropanamine], in that order: more than 2.5 µM, 0.25 to 2.5 µM and more than 2.5 µM.
On the same counts, the results for `CN1CCCC1CCNCc1cc(/C=N/C2CC2)ccn1` (stereo not drawn) [Compound 40, N-{[2-({[2-(l-methylpyrrolidin-2-yl)ethyl]amino}methyl)-pyridin-4-yl]methylidene}-cyclopropanamine] are more than 2.5 µM, 0.25 to 2.5 µM and more than 2.5 µM.
As for `CN(CCCn1cccn1)C(=O)CNCc1cc(/C=N/C2CC2)ccn1` [Compound 52, 2-[({4-[N-cyclopropyl-carboximidoyl]-pyridin-2-yl}methyl)amino]-N-methyl-N-[3-(1H-pyrazol-1-yl)propyl]acetamide], the IC50 was more than 2.5 µM on KDM3A (JMJD1A), less than 0.25 µM on KDM4B (JMJD2B) and 0.25 to 2.5 µM on KDM4A (JMJD2A).
For `CN(C)C(=O)CNCc1cc(/C=N/CCCc2ccccc2)ccn1` [Compound 34, N,N-dimethyl-2-[({4-[[(3-phenylpropyl)imino]-methyl]pyridin-2-yl}methyl)amino]-acetamide], in that order: more than 2.5 µM, more than 2.5 µM and more than 2.5 µM.
On the same counts, the results for `NCc1ccnc(CNCCCCN2CCC2)c1` [Compound 7, [2-({[4-(azetidin-1-yl)butyl]amino}methyl)-pyridin-4-yl]-methanamine] are more than 2.5 µM, less than 0.25 µM and more than 2.5 µM.
For `CNCc1ccnc(CNCCCN(C)Cc2ccccc2)c1` [Compound 17, benzyl(methyl){3-[({4-[(methylamino)methyl]-pyridin-2-yl)methyl)-amino]propyl}-amine], in that order: more than 2.5 µM, 0.25 to 2.5 µM and more than 2.5 µM.
With `CCSCCNCc1cc(/C=N/C2CC2)ccn1` [Compound 39, N-{[2-({[2-(ethylsulfanyl)-ethyl]amino}methyl)pyridin-4-yl]methylidene}-cyclopropanamine], the results for the half-maximal inhibitory concentration (IC50) on KDM3A (JMJD1A), on KDM4B (JMJD2B) and at KDM4A (JMJD2A) were more than 2.5 µM, less than 0.25 µM and 0.25 to 2.5 µM, respectively.
On the same counts, the results for `CCN(CC)CCCCNCc1cc(CN)ccn1` [Compound 5, [2-({[4-(diethylamino)butyl]-amino}methyl)pyridin-4-yl]methanamine] are more than 2.5 µM, more than 2.5 µM and more than 2.5 µM.

The values are drawn from patent US9650339B2, “Inhibitors of histone demethylases” (Gilead Sciences, Inc., priority 2013, dated 2017).
